A short description of series [1]: Hydrolysis of the prodrugs in 80% human plasma. The series is classed as in vitro ADME. Conditions: for half-life: read-out: t1/2 in plasma.
Description: At 37±0.5° C., the hydrolysis rate of the prodrugs was measured in 80% human plasma. An appropriate aliquot (20-100 μL) of 1 mg/ml prodrug solution in methanol was transferred to 5.0 ml of preheated plasma. At appropriate time intervals, 300 μl sample aliquots were withdrawn and transferred to 600 μl acetonitrile and mixed thoroughly. After centrifugation at 13500 rpm for 5 min, the supernatant was analyzed by HPLC for parent drug and remaining prodrug.
The nature of series [2]: Solubility of the prodrugs in PBS (67 mM phosphate buffer pH 7.4). As to conditions: for solubility thermodynamic: 67 mM phosphate buffer pH 7.4 (PBS), 37 °C, pH 7.4, aqueous buffer, thermodynamic from solid; for Sprodrug ± SD: PBS (67 mM phosphate buffer pH 7.4), 37° C.
Description: The determination of the solubility of a prodrug at different pH values of interest according to the present invention is carried by adding excess solid prodrug to a container containing a buffer solution with well-defined pH. The mixture is rotated at constant temperature until an equilibrium between solid prodrug and prodrug in solution has established (that is until the prodrug concentration in the supernatant remains constant). At each measurement the pH of the supernatant is controlled and, if needed, adjusted to the desired pH.
Suspensions of the prodrugs in 67 mM phosphate buffer pH 7.4 (PBS) were prepared by adding 10 mL PBS to approximately 5 mg prodrug. The suspensions were kept unstirred at 37° C. in an incubator hood. At appropriate time intervals over 23 days, about 500 μL samples were taken and after filtration (disposable syringe filters), the solutions were analyzed immediately by HPLC for parent drug and remaining prodrug. Quantitation of parent drug and prodrug was done from peak area measurements in relations to those of standards analysed by HPLC at the same conditions. […] For the diclofenac and ibuprofen prodrugs, the following method was used: Merck Hitachi L 6000 pump connected to Merck Hitachi 4250 UV detector. Reversed phase chromatography was performed using a C18 Gemini® RP column (150×4.6 mm, 5 μm particles) (Phenomenex, Torrance, Calif., USA) equipped with a SecurityGuard precolumn (Phenomenex, Torrance, Calif., USA). The flow rate was set at 1 mL/min and the column effluent was monitored at 230 nm. The mobile phase consisted of 35% (v/v) acetonitrile and 65% (v/v) of 0.1% (v/v) phosphoric acid pH 3.2. The retention times varied in the range of 3 to 30 min.
From the observed relatively stable concentration of dissolved prodrugs measured in the suspensions after 8-9 day up to 23 days, the solubilities of the prodrugs (Sprodrug) were determined.
Series [3] in a line: Stability (cleavage to parent drug) of prodrug suspensions in PBS pH 7.4. The series is classed as physicochemical. Conditions: for half-life at 0.5 mg/mL: 67 mM phosphate buffer (PBS), PBS pH 7.4, 37° C., read-out: t1/2 in PBS (converted); for apparent pseudo-zero-order rate constant k0: appearance of parent drug in PBS pH 7.4 suspension, 37° C.; for estimated pseudo first-order rate constant khyd: cleavage of prodrug in PBS pH 7.4, 37° C., calculated from k0 and Sprodrug.
Description: Suspensions of the prodrugs in 67 mM phosphate buffer pH 7.4 (PBS) were prepared by adding 10 mL PBS to approximately 5 mg prodrug. The suspensions were kept unstirred at 37° C. in an incubator hood. At appropriate time intervals over 23 days, about 500 μL samples were taken and after filtration (disposable syringe filters), the solutions were analyzed immediately by HPLC for parent drug and remaining prodrug. Quantitation of parent drug and prodrug was done from peak area measurements in relations to those of standards analysed by HPLC at the same conditions.
From the observed relatively stable concentration of dissolved prodrugs measured in the suspensions after 8-9 day up to 23 days, the solubilities of the prodrugs (Sprodrug) were determined. In this time interval, the rate of appearance of parent drug was determined and an apparent pseudo-zero-order rate constant (k0) was obtained. By assuming that the dissolution rates were much faster than the conversion of the prodrugs to the parent drug, pseudo first-order rate constants (khyd) for cleavage of the prodrugs were calculated according to:

Series [4] in a line: Solubility at acidic pH, with and without DMA cosolvent. The series is classed as physicochemical. As to conditions: demineralized water acidified with HCl, 37 °C, pH 2.9, aqueous buffer, thermodynamic from solid, pH 2.9, 37° C., no DMA. The procedure: A suspension of DPX-2-0007 (as hydrochloride salt) was formed by adding 30 mg to 4 mL demineralized water. After rotation of the suspension at 37° C. for 3 days, 1.0 mL sample was taken and after filtration (disposable syringe filters), the solution was diluted in methanol:water 1:1 and analyzed immediately by HPLC for prodrug. […] The pH in the solution was measured to 3.40. The following HPLC method was used: Merck Hitachi L 6200 pump connected to Merck Hitachi 4250 UV detector. Reversed phase chromatography was performed using a RP 18 Symmetry Shields® column (150×4.6 mm, 5 μm particles) equipped with a SecurityGuard precolumn (Phenomenex, Torrance, Calif., USA). […] The retention time of naproxen and DPX-2-0007 were 19 and 5.8 min, respectively.
A suspension of DPX-2-0006 was formed by adding 10 mg to 3 mL demineralized water, 0.05 mL 0.100 M HCl was added to obtain a pH of 3. After rotation of the suspension at 37° C. for 1 days, 0.5 mL sample was taken and after filtration (disposable syringe filters), the solution was diluted in methanol:water 1:1 and analyzed immediately by HPLC for prodrug. […] The HPLC method described in Example 29 was applied and the retention time of DPX-2-0006 was 14 min, respectively. N,N-dimethylacetamide (DMA) was added stepwise to the acidic suspension of DPX-2-0006 and the amount of DPX-2-000 dissolved in the presence of various volumes of DMA was determined after 1-3 days rotation at 37° C. as described above.

Setting [5] is: hydrolysis in 80% human plasma at 37° C.

Each structure is given as a SMILES string. Values after ≈ are worked out from the molar mass of the structure shown. Values joined by “and” are separate entries in the source; they are usually repeats but may differ in a detail not shown here. Equal values may be shown once.

Usually solubility (thermodynamic) stands for solubility found after equilibrating the solid with the medium. As for `COc1ccc2cc(C(C)C(=O)OCCn3ccnc3)ccc2c1` (stereo not shown), the half-life in series [1] (setting [5]) was 1.07 h. In series [2], the thermodynamic solubility is 146 ± 5 µg/mL (≈ 450 µM) and the “Sprodrug ± SD” value amounted to 0.45 ± 0.02 mM.

On to `CN(C)c1ccc(CCOC(=O)Cc2ccccc2Nc2c(Cl)cccc2Cl)cc1` [DPX-1-0001, 4-(dimethylamino)phenethyl 2-(2-(2,6-dichlorophenylamino)phenyl)acetate], for which, in series [2], the solubility (thermodynamic) is 0.01 µg/mL (≈ 0.0226 µM) and the “Sprodrug ± SD” value worked out at 2e-05 mM.

With `CN(CCOC(=O)Cc1ccccc1Nc1c(Cl)cccc1Cl)c1ccccc1` [DPX-1-0002, 2-(methyl(phenyl)amino)ethyl 2-(2-(2,6-dichlorophenylamino)phenyl)acetate], in series [2], the solubility (thermodynamic) is less than 0.1 µg/mL and the “Sprodrug ± SD” value is less than 0.0002 mM.

On to `O=C(Cc1ccccc1Nc1c(Cl)cccc1Cl)OCCc1ccccn1` [DPX-1-0004, 2-(pyridin-2-yl)ethyl 2-(2-((2,6-dichlorophenyl)amino)phenyl)acetate], for which, in series [3], the half-life at 0.5 mg/mL is 5 days, the “apparent pseudo-zero-order rate constant k0” value is 1.1e-06 M/day and the “estimated pseudo first-order rate constant khyd” value is 0.15 day⁻¹. Further, the half-life in series [1] (setting [5]) stood at 0.417 h. For the same molecule, in series [2], the thermodynamic solubility came out at 3 ± 1 µg/mL (≈ 7.48 µM) and the “Sprodrug ± SD” value came to 0.007 ± 0.001 mM.

Consider `O=C(Cc1ccccc1Nc1c(Cl)cccc1Cl)OCCn1ccnc1` [DPX-1-0005, 2-(1H-imidazol-1-yl)ethyl 2-(2-(2,6-dichlorophenylamino)phenyl)acetate], for which, in series [2], the solubility (thermodynamic) was 1 µg/mL (≈ 2.56 µM) and the “Sprodrug ± SD” value was found to be 0.003 mM.

Regarding `O=C(Cc1ccccc1Nc1c(Cl)cccc1Cl)OCCn1cnc2ccccc21` [DPX-1-0006, 2-(1H-benzo[d]imidazol-1-yl)ethyl 2-(2-((2,6-dichlorophenyl)amino)phenyl)acetate], in series [3], the half-life at 0.5 mg/mL is 4 days, the “apparent pseudo-zero-order rate constant k0” value came to 2.4e-06 M/day and the “estimated pseudo first-order rate constant khyd” value was 0.17 day⁻¹. In addition, the half-life in series [1] (setting [5]) worked out at 0.05 h. Moreover, in series [2], the solubility (thermodynamic) worked out at 7 ± 2 µg/mL (≈ 15.9 µM) and the “Sprodrug ± SD” value amounted to 0.015 ± 0.004 mM.

As for `O=C(Cc1ccccc1Nc1c(Cl)cccc1Cl)OCCn1ccnc1-c1ccccc1` [DPX-1-0007, 2-(2-phenyl-1H-imidazol-1-yl)ethyl 2-(2-((2,6-dichlorophenyl)amino)phenyl)acetate], in series [3], the half-life at 0.5 mg/mL is 242 days, the “apparent pseudo-zero-order rate constant k0” value came out at 2.5e-07 M/day and the “estimated pseudo first-order rate constant khyd” value is 0.0029 day⁻¹. In series [1] (setting [5]), the half-life came out at 0.817 h. In series [2], the solubility (thermodynamic) was 43 ± 2 µg/mL (≈ 92.2 µM) and the “Sprodrug ± SD” value is 0.086 ± 0.003 mM.

`CCCc1nccn1CCOC(=O)Cc1ccccc1Nc1c(Cl)cccc1Cl` [DPX-1-0008, 2-(2-propyl-1H-imidazol-1-yl)ethyl 2-(2-(2,6-dichlorophenylamino)phenyl)acetate]: in series [2], the solubility (thermodynamic) stood at 0.3 µg/mL (≈ 0.694 µM) and the “Sprodrug ± SD” value is listed as 0.0007 mM.

For `O=C(Cc1ccccc1Nc1c(Cl)cccc1Cl)OCCCCCCn1ccnc1` [DPX-1-0009, 6-(1H-imidazol-1-yl)hexyl 2-(2-(2,6-dichlorophenylamino)phenyl)acetate], in series [2], the solubility (thermodynamic) was less than 0.3 µg/mL and the “Sprodrug ± SD” value is less than 0.0007 mM.

As for `CCCc1nccn1CCCCCCOC(=O)Cc1ccccc1Nc1c(Cl)cccc1Cl` [DPX-1-0010, 6-(2-propyl-1H-imidazol-1-yl)hexyl 2-(2-(2,6-dichiorophenylamino)phenyl)acetate], in series [2], the thermodynamic solubility was less than 0.4 µg/mL and the “Sprodrug ± SD” value is less than 0.0008 mM.

Take `Cn1ccnc1CCOC(=O)Cc1ccccc1Nc1c(Cl)cccc1Cl` [DPX-1-0011, 2-(1-methyl-1H-imidazol-2-yl)ethyl 2-(2((2,6-dichlorophenyl)amino)phenyl)acetate]: in series [2], the solubility (thermodynamic) came out at 0.1 µg/mL (≈ 0.247 µM) and the “Sprodrug ± SD” value stood at 0.0002 mM.

In the case of `O=C(Cc1ccccc1Nc1c(Cl)cccc1Cl)OCCOCCn1ccnc1-c1ccccc1` [DPX-1-0012, 2-(2-(2-phenyl-1H-imidazol-1-yl)ethoxy)ethyl 2-(2-((2,6-dichlorophenyl)-amino)phenyl)acetate], in series [2], the solubility (thermodynamic) is less than 0.3 µg/mL and the “Sprodrug ± SD” value is on record as less than 0.0006 mM.

As for `COc1ccc2cc(C(C)C(=O)OCCc3ccc(N(C)C)cc3)ccc2c1` (stereo not shown) [DPX-2-0001, 4-(dimethylamino)phenethyl 2-(6-methoxynaphthalen-2-yl)propanoate], in series [2], the thermodynamic solubility was less than 0.3 µg/mL and the “Sprodrug ± SD” value is listed as less than 0.0008 mM.

Turning to `COc1ccc2cc(C(C)C(=O)OCCN(C)c3ccccc3)ccc2c1` (stereo not shown) [DPX-2-0002, 2-(methyl(phenyl)amino)ethyl 2-(6-methoxynaphthalen-2-yl)propanoate], in series [2], the solubility (thermodynamic) is less than 0.2 µg/mL and the “Sprodrug ± SD” value is reported as less than 0.0006 mM.

Take `COc1ccc2cc(C(C)C(=O)OCCCN(C)c3ccccc3)ccc2c1` (stereo not shown) [DPX-2-0003, 3-(methyl(phenyl)amino)propyl 2-(6-methoxynaphthalen-2-yl)propanoate]: in series [2], the solubility (thermodynamic) is less than 1 µg/mL and the “Sprodrug ± SD” value was less than 0.003 mM.

Turning to `COc1ccc2cc(C(C)C(=O)OCCc3ccccn3)ccc2c1` (stereo not shown) [DPX-2-0004, 2-(pyridin-2-yl)ethyl 2-(6-methoxynaphthalen-2-yl)propanoate], in series [3], the half-life at 0.5 mg/mL was 21 days, the “apparent pseudo-zero-order rate constant k0” value amounted to 1.7e-06 M/day and the “estimated pseudo first-order rate constant khyd” value is 0.033 day⁻¹. For the same molecule, in series [1] (setting [5]), the half-life came to 4.78 h. Moreover, in series [2], the solubility (thermodynamic) came to 19 ± 1 µg/mL (≈ 56.6 µM) and the “Sprodrug ± SD” value was found to be 0.052 ± 0.002 mM.

As usually defined, the solubility is the concentration that dissolves in the medium under given conditions. The low end stands for a poorly soluble substance, the high end for a readily soluble substance. As for `COc1ccc2cc(C(C)C(=O)OCCn3cnc4ccccc43)ccc2c1` (stereo not shown) [DPX-2-0006, 2-(1H-benzo[d]imidazol-1-yl)ethyl 2-(6-methoxynaphthalen-2-yl)propanoate], in series [3], the half-life at 0.5 mg/mL is 11 days, the “apparent pseudo-zero-order rate constant k0” value was 1e-06 M/day and the “estimated pseudo first-order rate constant khyd” value is 0.066 day⁻¹. For the same molecule, the half-life in series [1] (setting [5]) turned out to be 8.52 h. The molecule also came in with a solubility at 1 day in series [4] of 180 µg/mL (≈ 481 µM). Also, the “Sprodrug ± SD” value in series [2] was 5 ± 1 μg/mL and 0.015 ± 0.002 mM.

Regarding `CC(C)Cc1ccc(C(C)C(=O)OCCc2ccccn2)cc1` (stereo not shown) [DPX-3-0004, 2-(pyridin-2-yl)ethyl 2-(4-isobutylphenyl)propanoate], in series [3], the half-life at 0.5 mg/mL is 32 days, the “apparent pseudo-zero-order rate constant k0” value is 1e-06 M/day and the “estimated pseudo first-order rate constant khyd” value was 0.022 day⁻¹. The half-life in series [1] (setting [5]) turned out to be 12.6 h. In addition, in series [2], the thermodynamic solubility turned out to be 15 ± 2 µg/mL (≈ 48.2 µM) and the “Sprodrug ± SD” value is reported as 0.044 ± 0.004 mM.

On to `CC(C)Cc1ccc(C(C)C(=O)OCCn2cnc3ccccc32)cc1` (stereo not shown) [DPX-3-0006, 2-(1H-benzo[d]imidazol-1-yl)ethyl 2-(4-isobutylphenyl)propanoate], for which, in series [3], the half-life at 0.5 mg/mL was 15 days, the “apparent pseudo-zero-order rate constant k0” value is 5.7e-07 M/day and the “estimated pseudo first-order rate constant khyd” value was 0.048 day⁻¹. In addition, the “stability on incubation in plasma” value in series [1] (80% human plasma, 37° C., incubation for 10 h) is listed as “remained intact”. The t1/2 in plasma entry in series [1] (setting [5]) is listed as “stable”. In series [2], the thermodynamic solubility worked out at 4 ± 0.2 µg/mL (≈ 11.4 µM) and the “Sprodrug ± SD” value turned out to be 0.012 ± 0.001 mM.

For the molecule `CC(C)Cc1ccc(C(C)C(=O)OCCn2ccnc2-c2ccccc2)cc1` (stereo not shown) [DPX-3-0007, 2-(2-phenyl-1H-imidazol-1-yl)ethyl 2-(4-isobutylphenyl)propanoate], in series [2], the solubility (thermodynamic) was 1 µg/mL (≈ 2.66 µM) and the “Sprodrug ± SD” value was 0.002 mM.

Source of the values: patent US9809557B2 (priority 2011, dated 2017).
